Key:
Assay in all cases: relative viability (nuclei count vs DMSO), 5 days (fraction); higher = more cells survive
TPCA-1 + Lapatinib = compound: C1=CC(=CC=C1C2=CC(=C(S2)NC(=O)N)C(=O)N)F [TPCA-1] + CS(=O)(=O)CCNCc1ccc(-c2ccc3ncnc(Nc4ccc(OCc5cccc(F)c5)c(Cl)c4)c3c2)o1 [Lapatinib] (partner 2 µM)
Procedure, shortened: (§1)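 Five library-drug doses in √10 steps were combined with a fixed anchor-drug dose, or a single drug was given alone, by pin tool to lung cancer cell lines in 1536-well plates the day after seeding. Nuclei were stained and counted after 5 days. Relative viability is the nuclei count in treated wells over that in vehicle wells, taken as the median of duplicate plates.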

[1] = compound: C1/C(=C\C2=CC=CS2)/C(=O)/C(=C/C3=CC=CS3)/C1 + N=C(N)NC(=N)NCCc1ccccc1 [Phenformin] (partner 250 µM)
Procedure, shortened: as §1

[2] = compound: C[C@]12O[C@H](C[C@]1(O)CO)n1c3ccccc3c3c4c(c5c6ccccc6n2c5c31)CNC4=O [Lestaurtinib] + N=C(N)NC(=N)NCCc1ccccc1 [Phenformin] (partner 250 µM)
Procedure, shortened: as §1

Lestaurtinib + Olaparib = compound: C[C@]12O[C@H](C[C@]1(O)CO)n1c3ccccc3c3c4c(c5c6ccccc6n2c5c31)CNC4=O [Lestaurtinib] + O=C(c1cc(Cc2n[nH]c(=O)c3ccccc23)ccc1F)N1CCN(C(=O)C2CC2)CC1 [Olaparib] (partner 8 µM)
Procedure, shortened: as §1

| Cell Line | relative viability (TPCA-1 + Lapatinib; first compound 0.04 µM) | relative viability (TPCA-1 + Lapatinib; first compound 0.1265 µM) | relative viability (TPCA-1 + Lapatinib; first compound 0.4 µM) | relative viability (TPCA-1 + Lapatinib; first compound 1.265 µM) | relative viability (TPCA-1 + Lapatinib; first compound 4 µM) | relative viability ([1]; first compound 0.2 µM) | relative viability ([1]; first compound 0.6325 µM) | relative viability ([1]; first compound 2 µM) | relative viability ([1]; first compound 6.325 µM) | relative viability ([1]; first compound 20 µM) | relative viability ([2]; first compound 0.005 µM) | relative viability ([2]; first compound 0.01581 µM) | relative viability ([2]; first compound 0.05 µM) | relative viability ([2]; first compound 0.1581 µM) | relative viability ([2]; first compound 0.5 µM) | relative viability (Lestaurtinib + Olaparib; first compound 0.005 µM) | relative viability (Lestaurtinib + Olaparib; first compound 0.01581 µM) | relative viability (Lestaurtinib + Olaparib; first compound 0.05 µM) | relative viability (Lestaurtinib + Olaparib; first compound 0.1581 µM) | relative viability (Lestaurtinib + Olaparib; first compound 0.5 µM) |
| --- | --- | --- | --- | --- | --- | --- | --- | --- | --- | --- | --- | --- | --- | --- | --- | --- | --- | --- | --- | --- |
| 201T | 1.05 | 1.02 | 1.01 | 1.01 | 1.05 | 0.495 | 0.431 | 0.478 | 0.425 | 0.455 | 0.467 | 0.491 | 0.363 | 0.418 | 0.278 | 0.89 | 0.712 | 0.882 | 0.937 | 0.552 |
| A549 | 1.03 | 0.922 | 1.1 | 0.959 | 0.969 | 0.208 | 0.196 | 0.154 | – | 0.17 | 0.204 | 0.141 | 0.16 | 0.1 | 0.045 | 0.299 | 0.238 | 0.271 | 0.282 | 0.158 |
| A-427 | 1.17 | 0.901 | 1.05 | 0.989 | 0.907 | 0.346 | 0.417 | 0.273 | 0.292 | 0.278 | 0.339 | 0.3 | 0.23 | 0.225 | 0.149 | 0.802 | 0.745 | 0.712 | 0.485 | 0.315 |
| ABC-1 | 1.19 | 1.06 | 1.22 | 1.21 | 0.854 | 0.234 | 0.253 | 0.247 | 0.219 | 0.211 | 0.251 | 0.252 | 0.243 | 0.199 | 0.166 | 0.735 | 0.785 | 0.902 | 1.13 | 0.937 |
| BEN | 0.731 | 0.5 | 0.672 | 0.793 | 0.661 | 0.268 | 0.293 | 0.285 | 0.214 | 0.257 | 0.292 | 0.316 | 0.267 | 0.237 | 0.196 | 1.24 | 1.07 | 1.1 | 0.853 | 0.521 |
| CAL-12T | 0.638 | 0.582 | 0.708 | 0.38 | 0.389 | 0.651 | 0.672 | 0.562 | 0.585 | 0.574 | 0.488 | 0.622 | 0.375 | 0.32 | 0.189 | 0.837 | 0.767 | 0.877 | 0.802 | 0.344 |
| Calu-6 | 1.15 | 1.04 | 1.01 | 0.956 | 0.91 | – | – | – | – | – | – | – | – | – | – | 0.572 | – | 0.457 | 0.388 | 0.252 |
| ChaGo-K-1 | – | – | – | – | – | 0.517 | 0.493 | 0.459 | 0.3 | 0.271 | 0.484 | 0.447 | 0.448 | 0.333 | 0.275 | 0.424 | 0.464 | 0.427 | 0.387 | 0.279 |

Source: the supplement of paper PMC10307832
